# Experimental data as given in ChEMBL document CHEMBL5653602, “Biochemical characterization of GSK1070916, a potent and selective inhibitor of Aurora B and Aurora C kinases with an extremely long residence time1” (Biochem J, 2009).
# Activity calls are given as the source filed them. The calls are words filed in the database; no cut-off is given here.
# Assays:
# [1] = target: T1, Aurora kinase B/Inner centromere protein (Homo sapiens) (UniProt Q96GD4+Q9NQS7)
# Description: Binding affinity to human AurB/INCENP assessed as dissociation half life
# [2] = target: T2, Aurora kinase B/Inner centromere protein (Homo sapiens, UniProt Q96GD4); experiment: Inhibition of human AurB/INCENP in PBS using Biotin-Ahx-RARRRLSFFFFAKKK-NH2 as substrate incubated for 30 mins in presence of ATP; type: protein-complex assay
# [3] = target: T1, Aurora kinase B/Inner centromere protein (Homo sapiens); details: dose 100.0 nM, time 60.0 min
# [4] = target: T2, Aurora kinase B/Inner centromere protein; experiment: Binding affinity to human AurB/INCENP assessed as inhibition constant using aurora sox peptide as substrate incubated for 60 mins in presence of ATP by fluorescence based assay; type: protein-complex assay
# [5] = target: T3, Aurora-C/INCENP (Homo sapiens, UniProt Q9NQS7+Q9UQB9); experiment: Binding affinity to human AurC/INCENP assessed as inhibition constant using aurora sox peptide as substrate incubated for 60 mins in presence of ATP by fluorescence based assay; type: protein-complex assay
# [6] = target: T3, Aurora-C/INCENP; experiment: Inhibition of human AurC/INCENP in PBS using Biotin-Ahx-RARRRLSFFFFAKKK-NH2 as substrate incubated for 30 mins in presence of ATP; type: protein-complex assay
# [7] = target: Serine/threonine-protein kinase SIK1 (Homo sapiens, UniProt P57059); experiment: Inhibition of SIK (unknown origin)
# [8] = target: Vascular endothelial growth factor receptor 1 (Homo sapiens, UniProt P17948); experiment: Inhibition of FLT1 (unknown origin)
# [9] = target: Angiopoietin-1 receptor (Homo sapiens, UniProt Q02763); experiment: Inhibition of TIE2 (unknown origin)
# [10] = target: T1, Aurora kinase B/Inner centromere protein (Homo sapiens); details: dose 100.0 nM, time 60.0 min; remark: listed apart in the source
# [11] = target: Aurora-C/INCENP (Homo sapiens) (UniProt Q9UQB9+Q9NQS7); details: dose 100.0 nM, time 60.0 min
# T3 sequence (Q9UQB9 whole entry): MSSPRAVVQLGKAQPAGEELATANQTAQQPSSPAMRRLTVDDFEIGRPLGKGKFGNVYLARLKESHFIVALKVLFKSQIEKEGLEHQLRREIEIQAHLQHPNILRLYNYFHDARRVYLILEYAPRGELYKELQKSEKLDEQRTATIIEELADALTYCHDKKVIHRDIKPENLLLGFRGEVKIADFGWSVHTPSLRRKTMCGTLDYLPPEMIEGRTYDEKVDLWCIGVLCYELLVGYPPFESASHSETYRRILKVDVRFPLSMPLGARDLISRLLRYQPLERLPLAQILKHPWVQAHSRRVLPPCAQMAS
# T3 sequence (Q9NQS7 whole entry): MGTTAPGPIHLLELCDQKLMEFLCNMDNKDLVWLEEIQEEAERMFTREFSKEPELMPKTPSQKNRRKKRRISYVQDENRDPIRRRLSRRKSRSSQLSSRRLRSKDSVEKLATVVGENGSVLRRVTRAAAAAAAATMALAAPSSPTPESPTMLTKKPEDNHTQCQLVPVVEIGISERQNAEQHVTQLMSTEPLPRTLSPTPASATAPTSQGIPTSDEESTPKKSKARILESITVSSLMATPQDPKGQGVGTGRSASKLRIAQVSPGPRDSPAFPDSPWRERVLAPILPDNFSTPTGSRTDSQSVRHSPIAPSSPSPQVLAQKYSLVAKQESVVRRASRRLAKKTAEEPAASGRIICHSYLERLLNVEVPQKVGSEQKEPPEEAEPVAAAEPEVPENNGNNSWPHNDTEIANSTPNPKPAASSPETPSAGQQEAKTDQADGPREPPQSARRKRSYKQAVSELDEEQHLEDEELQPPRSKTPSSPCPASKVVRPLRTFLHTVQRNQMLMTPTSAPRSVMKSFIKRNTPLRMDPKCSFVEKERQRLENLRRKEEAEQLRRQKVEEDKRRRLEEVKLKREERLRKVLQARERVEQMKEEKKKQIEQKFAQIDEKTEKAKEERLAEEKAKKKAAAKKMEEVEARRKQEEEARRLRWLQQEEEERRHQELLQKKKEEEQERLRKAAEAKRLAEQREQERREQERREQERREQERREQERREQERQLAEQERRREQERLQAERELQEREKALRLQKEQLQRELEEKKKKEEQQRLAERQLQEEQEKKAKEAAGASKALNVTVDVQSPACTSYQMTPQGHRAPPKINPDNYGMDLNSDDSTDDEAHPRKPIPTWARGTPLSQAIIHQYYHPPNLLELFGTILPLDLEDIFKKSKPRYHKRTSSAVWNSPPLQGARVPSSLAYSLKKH
# T2 sequence (Q96GD4 whole entry): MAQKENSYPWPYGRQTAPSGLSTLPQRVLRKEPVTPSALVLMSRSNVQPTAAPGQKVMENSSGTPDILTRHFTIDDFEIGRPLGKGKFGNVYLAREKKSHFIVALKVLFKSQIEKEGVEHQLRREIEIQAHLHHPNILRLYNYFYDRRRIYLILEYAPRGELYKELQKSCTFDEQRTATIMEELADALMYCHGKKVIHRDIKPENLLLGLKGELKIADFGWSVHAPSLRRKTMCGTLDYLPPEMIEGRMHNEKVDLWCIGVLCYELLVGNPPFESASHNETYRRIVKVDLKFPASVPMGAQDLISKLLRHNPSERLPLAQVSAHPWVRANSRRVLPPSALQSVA
# T2 sequence (Q9NQS7 whole entry, further chain): as the sequence (Q9NQS7 whole entry) above
# Serine/threonine-protein kinase SIK1, sequence (P57059 whole entry): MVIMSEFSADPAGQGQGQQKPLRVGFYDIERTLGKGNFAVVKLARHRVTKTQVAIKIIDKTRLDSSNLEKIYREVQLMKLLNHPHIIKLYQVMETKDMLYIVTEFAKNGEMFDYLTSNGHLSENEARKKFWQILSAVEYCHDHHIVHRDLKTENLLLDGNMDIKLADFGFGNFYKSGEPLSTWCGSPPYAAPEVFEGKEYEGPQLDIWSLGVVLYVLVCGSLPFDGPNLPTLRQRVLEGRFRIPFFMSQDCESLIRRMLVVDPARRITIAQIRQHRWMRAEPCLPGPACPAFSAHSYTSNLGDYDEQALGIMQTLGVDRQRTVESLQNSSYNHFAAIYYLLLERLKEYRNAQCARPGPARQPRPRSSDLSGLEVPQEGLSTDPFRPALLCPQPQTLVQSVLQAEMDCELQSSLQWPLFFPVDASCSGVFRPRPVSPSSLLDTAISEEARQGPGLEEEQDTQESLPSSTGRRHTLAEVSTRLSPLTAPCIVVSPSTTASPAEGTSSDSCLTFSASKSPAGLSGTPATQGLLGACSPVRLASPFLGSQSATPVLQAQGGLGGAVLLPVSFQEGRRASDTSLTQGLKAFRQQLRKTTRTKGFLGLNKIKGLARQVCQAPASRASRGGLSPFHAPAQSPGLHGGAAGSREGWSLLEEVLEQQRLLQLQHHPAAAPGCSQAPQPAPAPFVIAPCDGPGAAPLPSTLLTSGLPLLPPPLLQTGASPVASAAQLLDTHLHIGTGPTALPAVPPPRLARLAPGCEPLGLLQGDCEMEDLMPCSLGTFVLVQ
# Vascular endothelial growth factor receptor 1, sequence (P17948 whole entry): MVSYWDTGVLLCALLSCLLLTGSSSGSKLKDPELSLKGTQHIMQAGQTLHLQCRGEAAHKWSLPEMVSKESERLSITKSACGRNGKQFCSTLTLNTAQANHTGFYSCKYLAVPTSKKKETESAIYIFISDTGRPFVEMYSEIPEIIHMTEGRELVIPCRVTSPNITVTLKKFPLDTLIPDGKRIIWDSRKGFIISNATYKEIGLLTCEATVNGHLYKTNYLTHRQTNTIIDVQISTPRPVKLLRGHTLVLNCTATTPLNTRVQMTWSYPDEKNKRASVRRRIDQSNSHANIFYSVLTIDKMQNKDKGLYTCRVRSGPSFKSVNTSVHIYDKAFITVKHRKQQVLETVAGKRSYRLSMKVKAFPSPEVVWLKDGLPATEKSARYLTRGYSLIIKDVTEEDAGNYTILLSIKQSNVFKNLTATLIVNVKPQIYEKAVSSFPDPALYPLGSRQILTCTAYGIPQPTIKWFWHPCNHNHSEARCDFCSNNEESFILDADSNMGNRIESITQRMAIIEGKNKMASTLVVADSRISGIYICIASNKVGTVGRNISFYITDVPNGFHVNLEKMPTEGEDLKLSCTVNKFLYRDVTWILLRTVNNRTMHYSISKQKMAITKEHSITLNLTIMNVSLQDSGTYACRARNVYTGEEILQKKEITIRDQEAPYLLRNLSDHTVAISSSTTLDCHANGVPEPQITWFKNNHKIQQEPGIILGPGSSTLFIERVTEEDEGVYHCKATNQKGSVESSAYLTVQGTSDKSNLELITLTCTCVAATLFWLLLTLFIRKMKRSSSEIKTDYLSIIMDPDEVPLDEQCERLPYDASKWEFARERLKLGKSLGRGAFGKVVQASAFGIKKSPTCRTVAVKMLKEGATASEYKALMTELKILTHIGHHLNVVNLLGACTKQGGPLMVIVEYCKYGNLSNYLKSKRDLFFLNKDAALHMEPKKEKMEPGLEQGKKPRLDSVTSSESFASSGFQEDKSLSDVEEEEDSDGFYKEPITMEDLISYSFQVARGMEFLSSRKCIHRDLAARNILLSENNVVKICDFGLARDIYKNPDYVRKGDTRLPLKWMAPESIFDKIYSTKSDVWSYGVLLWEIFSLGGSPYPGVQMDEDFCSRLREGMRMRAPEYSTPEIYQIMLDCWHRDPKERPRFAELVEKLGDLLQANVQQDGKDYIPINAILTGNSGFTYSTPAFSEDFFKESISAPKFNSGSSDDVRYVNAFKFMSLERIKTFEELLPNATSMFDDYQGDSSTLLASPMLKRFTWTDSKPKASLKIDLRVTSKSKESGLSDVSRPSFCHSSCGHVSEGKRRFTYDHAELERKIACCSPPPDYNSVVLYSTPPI
# Angiopoietin-1 receptor, sequence (Q02763 whole entry): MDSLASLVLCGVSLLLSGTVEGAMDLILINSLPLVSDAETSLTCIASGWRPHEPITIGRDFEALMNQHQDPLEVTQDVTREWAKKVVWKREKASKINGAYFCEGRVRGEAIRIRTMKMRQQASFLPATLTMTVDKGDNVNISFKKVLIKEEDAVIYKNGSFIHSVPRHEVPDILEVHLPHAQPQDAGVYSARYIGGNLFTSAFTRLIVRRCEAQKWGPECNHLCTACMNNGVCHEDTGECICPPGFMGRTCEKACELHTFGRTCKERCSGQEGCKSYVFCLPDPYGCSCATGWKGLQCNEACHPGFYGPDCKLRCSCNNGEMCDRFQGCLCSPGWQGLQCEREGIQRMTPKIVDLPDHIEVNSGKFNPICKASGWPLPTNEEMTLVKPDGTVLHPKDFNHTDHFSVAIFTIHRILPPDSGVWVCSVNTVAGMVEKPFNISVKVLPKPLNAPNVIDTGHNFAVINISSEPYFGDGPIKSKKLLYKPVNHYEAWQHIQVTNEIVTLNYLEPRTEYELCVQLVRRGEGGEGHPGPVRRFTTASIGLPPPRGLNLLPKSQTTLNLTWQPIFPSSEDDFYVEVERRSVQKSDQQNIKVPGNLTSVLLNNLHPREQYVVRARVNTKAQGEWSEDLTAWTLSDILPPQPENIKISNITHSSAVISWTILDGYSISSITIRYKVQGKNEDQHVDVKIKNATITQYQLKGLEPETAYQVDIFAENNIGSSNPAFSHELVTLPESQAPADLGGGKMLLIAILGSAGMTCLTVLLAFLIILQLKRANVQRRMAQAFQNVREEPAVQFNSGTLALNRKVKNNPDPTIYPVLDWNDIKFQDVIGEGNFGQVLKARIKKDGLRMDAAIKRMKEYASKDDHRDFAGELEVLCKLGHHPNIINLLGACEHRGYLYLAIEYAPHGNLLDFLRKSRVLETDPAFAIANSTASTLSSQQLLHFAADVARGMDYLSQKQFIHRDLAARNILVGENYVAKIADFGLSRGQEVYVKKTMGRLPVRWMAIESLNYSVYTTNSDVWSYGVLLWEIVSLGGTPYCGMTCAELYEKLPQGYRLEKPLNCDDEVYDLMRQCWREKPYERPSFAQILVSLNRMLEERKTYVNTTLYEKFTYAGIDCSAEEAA
Structure (SMILES),T1/2 [1] [min],IC50 [2] [nM],T1/2 [3] [min],Ki [4] [nM],Ki [5] [nM],IC50 [6] [nM],IC50 [7] [nM],IC50 [8] [nM],IC50 [9] [nM],inhibition [10],T1/2 [11] [min]
CCN(CCCOc1ccc2c(Nc3cc(CC(=O)Nc4cccc(F)c4)[nH]n3)ncnc2c1)CCOP(=O)(O)O,15,–,–,–,–,–,–,–,–,–,–
Cc1cc(Nc2cc(N3CCN(C)CC3)nc(Sc3ccc(NC(=O)C4CC4)cc3)n2)n[nH]1,25,–,–,–,–,–,–,–,–,–,–
CCn1cc(-c2ccnc3[nH]c(-c4cccc(CN(C)C)c4)cc23)c(-c2ccc(NC(=O)N(C)C)cc2)n1 [GSK-1070916],–,3.5,> 480,0.38,1.45,6.5,70,42,59,Active,270
